Measurements as given in ChEMBL document CHEMBL5724914, “Linking interpersonal differences in gut microbiota composition and drug biotransformation activity” (2024).

Experiments:
[1] = (§1) The drug is tested on Z-030 corresponding to mouse gut metagenome with ENA study accession number: PRJEB37062 and ENA sample accession number: ERS12561829 for biotransformation under anaerobic condition. The drug concentrations were measured over 9 timepoints collected between 0 and 24 hours of incubation by liquid-chromatography-coupled mass spectrometry (LC–MS); settings: 2 µM
[2] = as §1, with “Z-025” for “Z-030”, “rabbit” for “mouse”, “ERS12561824” for “ERS12561829”; settings: 2 µM
[3] = as §1, with “Z-020” for “Z-030”, “rabbit” for “mouse”, “ERS12561819” for “ERS12561829”; settings: 2 µM
[4] = as §1, with “Z-005” for “Z-030”, “to” for “to mouse gut”, “ERS12561805” for “ERS12561829”; settings: 2 µM
[5] = as §1, with “Z-004” for “Z-030”, “to” for “to mouse gut”, “ERS12561804” for “ERS12561829”; settings: 2 µM
[6] = as §1, with “WLS-350” for “Z-030”, “human” for “mouse”, “ERS12561789” for “ERS12561829”; settings: 2 µM
[7] = as §1, with “WLS-082” for “Z-030”, “human” for “mouse”, “ERS12561751” for “ERS12561829”; settings: 2 µM
[8] = as §1, with “WLS-073” for “Z-030”, “human” for “mouse”, “ERS12561749” for “ERS12561829”; settings: 2 µM
[9] = as §1, with “WLS-006” for “Z-030”, “human” for “mouse”, “ERS12561741” for “ERS12561829”; settings: 2 µM
[10] = human gut metagenome, 24 h, 2 µM
[11] = human gut metagenome, 24 h, 2 µM; remark: listed apart in the source
[12] = human gut metagenome, 24 h, 2 µM; remark: listed apart in the source
[13] = human gut metagenome, 24 h, 2 µM; remark: listed apart in the source
[14] = human gut metagenome, 24 h, 2 µM; remark: listed apart in the source
[15] = human gut metagenome, 24 h, 2 µM; remark: listed apart in the source
[16] = human gut metagenome, 24 h, 2 µM; remark: listed apart in the source
[17] = human gut metagenome, 24 h, 2 µM; remark: listed apart in the source
[18] = human gut metagenome, 24 h, 2 µM; remark: listed apart in the source
[19] = human gut metagenome, 24 h, 2 µM; remark: listed apart in the source
[20] = human gut metagenome, 24 h, 2 µM; remark: listed apart in the source
Note: call rule not given here.

Row | Compound | Bacterial Biotransformation [1] | Bacterial Biotransformation [2] | Bacterial Biotransformation [3] | Bacterial Biotransformation [4] | Bacterial Biotransformation [5] | Bacterial Biotransformation [6] | Bacterial Biotransformation [7] | Bacterial Biotransformation [8] | Bacterial Biotransformation [9] | Bacterial Biotransformation [10] | Bacterial Biotransformation [11] | Bacterial Biotransformation [12] | Bacterial Biotransformation [13] | Bacterial Biotransformation [14] | Bacterial Biotransformation [15] | Bacterial Biotransformation [16] | Bacterial Biotransformation [17] | Bacterial Biotransformation [18] | Bacterial Biotransformation [19] | Bacterial Biotransformation [20]
1 | Cc1nc(-c2ccc(OCC(C)C)c(C#N)c2)sc1C(=O)O [FEBUXOSTAT] | Compound NOT metabolized | Compound NOT metabolized | Compound metabolized | Compound metabolized | Compound NOT metabolized | Compound metabolized | Compound metabolized | Compound NOT metabolized | Compound metabolized | Compound metabolized | Compound metabolized | Compound metabolized | Compound metabolized | Compound metabolized | Compound NOT metabolized | Compound metabolized | Compound metabolized | Compound metabolized | Compound NOT metabolized | Compound metabolized
2 | CC(C)(C(=O)O)c1ccc(C(O)CCCN2CCC(C(O)(c3ccccc3)c3ccccc3)CC2)cc1 (stereo not given) [FEXOFENADINE] | Compound NOT metabolized | Compound NOT metabolized | Compound NOT metabolized | Compound NOT metabolized | Compound NOT metabolized | Compound NOT metabolized | Compound NOT metabolized | Compound NOT metabolized | Compound NOT metabolized | Compound NOT metabolized | Compound NOT metabolized | Compound NOT metabolized | Compound NOT metabolized | Compound NOT metabolized | Compound NOT metabolized | Compound NOT metabolized | Compound NOT metabolized | Compound NOT metabolized | Compound NOT metabolized | Compound NOT metabolized
3 | OCCN1CCN(CCCN2c3ccccc3Sc3ccc(C(F)(F)F)cc32)CC1 [FLUPHENAZINE] | Compound NOT metabolized | Compound metabolized | Compound NOT metabolized | Compound metabolized | Compound metabolized | Compound metabolized | Compound metabolized | Compound metabolized | Compound NOT metabolized | Compound metabolized | Compound metabolized | Compound NOT metabolized | Compound metabolized | Compound metabolized | Compound metabolized | Compound metabolized | Compound metabolized | Compound metabolized | Compound NOT metabolized | Compound metabolized
4 | COc1ccc2c3c1O[C@H]1C[C@@H](O)C=C[C@@]31CCN(C)C2 [GALANTAMINE] | Compound NOT metabolized | Compound NOT metabolized | Compound NOT metabolized | Compound NOT metabolized | Compound NOT metabolized | Compound metabolized | Compound NOT metabolized | Compound NOT metabolized | Compound NOT metabolized | Compound NOT metabolized | Compound NOT metabolized | Compound NOT metabolized | Compound metabolized | Compound NOT metabolized | Compound NOT metabolized | Compound NOT metabolized | Compound NOT metabolized | Compound NOT metabolized | Compound NOT metabolized | Compound metabolized
5 | Cc1ccc(S(=O)(=O)NC(=O)NN2CC3CCCC3C2)cc1 (stereo not given) [GLICLAZIDE] | Compound NOT metabolized | Compound NOT metabolized | Compound metabolized | Compound metabolized | Compound NOT metabolized | Compound metabolized | Compound metabolized | Compound metabolized | Compound metabolized | Compound metabolized | Compound metabolized | Compound metabolized | Compound metabolized | Compound metabolized | Compound metabolized | Compound metabolized | Compound metabolized | Compound NOT metabolized | Compound NOT metabolized | Compound metabolized
6 | COC1=CC(=O)C[C@@H](C)[C@]12Oc1c(Cl)c(OC)cc(OC)c1C2=O [GRISEOFULVIN] | Compound NOT metabolized | Compound metabolized | Compound NOT metabolized | Compound metabolized | Compound metabolized | Compound NOT metabolized | Compound metabolized | Compound metabolized | Compound metabolized | Compound metabolized | Compound NOT metabolized | Compound NOT metabolized | Compound metabolized | Compound metabolized | Compound metabolized | Compound metabolized | Compound metabolized | Compound metabolized | Compound NOT metabolized | Compound metabolized
7 | N#Cc1ccc(C(c2ccc(C#N)cc2)n2cncn2)cc1 [LETROZOLE] | Compound NOT metabolized | Compound NOT metabolized | Compound NOT metabolized | Compound NOT metabolized | Compound NOT metabolized | Compound NOT metabolized | Compound NOT metabolized | Compound NOT metabolized | Compound NOT metabolized | Compound NOT metabolized | Compound metabolized | Compound NOT metabolized | Compound NOT metabolized | Compound NOT metabolized | Compound NOT metabolized | Compound NOT metabolized | Compound NOT metabolized | Compound NOT metabolized | Compound NOT metabolized | Compound NOT metabolized
